Measured values from patent US9738612B2, “Methylacryloyl benzimidazolone derivative and anti-tumour use thereof” (SHANGHAI NATURE STANDARD R&D AND BIOTECH CO., LTD, priority 2014, dated 2017).

Columns and labels:
p-Akt (S473) = assay: Western blot, p-Akt (S473) in IGF stimulated A549 cells; format: cell-based; conditions: compound 1 h, IGF 10 min, FIG. 1, in words
Description: A549 cells were seeded at a density of 2×10^5 cells/well into 12-well plates, and adhered overnight. Then the medium was discarded and the plates were washed three times with normal saline. After that, fresh serum-free medium was added to starve cells for 24 hours, compounds to be tested were added to work for 1 h, then IGF-I was added to stimulated for 10 min, followed byadding a lysis buffer on ice to lyse for half an hour. The cell lysates were collected and centrifuged at 20000×g at 4° C. for 10min, then the supernatant was collected. Protein was quantified by MicroBCA protein quantification Assay kit, and the protein concentration was normalized. The supernatant was mixed with the 4×SDS sample buffer [200 mM Tris.Cl (pH 6.8), 400 mM DTT, 8% SDS, 0.4% bromophenol blue, 40% glycerol] and boiled for 15 min. After cooling at room temperature, aliquots were loaded on polyacrylamide gel, and electrophoresed in Tris-glycine electrophoretic buffer (25 mM Tris, 250 mM glycine, 0.1% SDS) at 80-120 V for about 2 h. Proteins were transferred from the gel to a nitrocellulose membrane by a semi-dry method. Transferring conditions: transfer buffer (39 mM glycine, 48 mM Tris base, 0.037% SDS, 20% methanol); transfer current 25 mA; transfer time 2 h. After transfer, Ponceau S staining was used to determine the transfer efficiency and the positions of protein bands on the nitrocellulose membranes. After labeling the membrane was blocked with a blocking solution containing 5% nonfat-dried milk [5% nonfat-dried milk, 20 mM Tris-HCl (pH 7.2-7.4), 150 mM NaCl, 0.1% (v/v) Tween 20] on a shaker at room temperature for 2 h. To the system were added specific primary antibodies and incubated overnight at 4° C. Then the membrane was washed with PBST solution [20 mM Tris-HCl (pH 7.2-7.4), 150 mM NaCl, 0.1% (v/v) Tween 20] at room temperature three times, 15 min/time. To the system were added Horseradish peroxidase-labeled secondary antibodies and incubated at room temperature on a shaker with gentle shaking for 2 h. After washing with PBST solution three times, the system was exposed, developed and fixed after SuperSignal West Dura Chemiluminescent Substrate (Pierce Inc, Rochford, IL) was used for color. The results were shown in FIG. 1, in which there were 12 lanes the band shade and size of which indicated the corresponding protein concentration levels. […] MK2206 was an Akt phosphorylation inhibitor developed by Merck, and was currently in phase II clinical trial, showing good therapeutic effects in a variety of tumors.

[1] = test system: more than 20 tumor cell lines; assay: Proliferation of more than 20 tumor cell lines (FIG. 2); format: cell-based; conditions: FIG. 2, in words
Description: (§1) At a certain density cells were seeded in 96-well plates, and adhered overnight. The medium was discarded after incubating cells with compounds to be tested for 72 h, then 100μL/well trichloroacetic acid (TCA) was added to fix cells at 4° C. for 2h. After that the fixing solution was discarded. Cells were gently washed 5 times with distilled water, dried at room temperature. Cells were stained with 4 mg/mL SRB staining solution (100 μL/well) at room temperature for 15min. The staining solution was discarded, and cells were washed five times with 1% acetic acid (HAC) and dried at room temperature. To the plate tris base buffer (10 mM) was added at 150 μL/well and placed at room temperature for 15min. The OD values were measured at 540 nm wavelength in a microplate reader. Inhibitory rate (%)=(OD valuecontrol wells−OD valuedrugs treated wells)/OD valuecontrol wells×100%.
(§2) In the present invention the inhibition of a representative compound FD162 to the proliferation of more than 20 tumor cell lines were tested, and the experimental methods were the same as that described in Example 2.

[2] = target: T1, PI3Kinase(p110α(E545K)/p85α)(h) (Homo sapiens, UniProt P42336, E545K); assay: Tumor-associated kinase inhibition test; format: biochemical; conditions: read-out: Inhibitory rate (%)
T1 construct: purchased Eurofins Pharma Discovery Services UK Limited (contract assay)
From the text: (§3) Eurofins Pharma Discovery Services UK Limited completed and reported this experiment.

c-RAF(h) = target: T2, c-RAF(h) (Homo sapiens, UniProt P04049); assay: Tumor-associated kinase inhibition test; format: biochemical; conditions: read-out: Inhibitory rate (%)
T2 construct: purchased Eurofins Pharma Discovery Services UK Limited (contract testing)
From the text: as §3

Rsk1(h) = target: T3, Rsk1(h) (Homo sapiens, UniProt Q15418); assay: Tumor-associated kinase inhibition test; format: biochemical; conditions: read-out: Inhibitory rate (%)
T3 construct: purchased Eurofins Pharma Discovery Services UK Limited
From the text: as §3

[3] = target: T4, PI3Kinase(p110α(H1047R)/p85α)(h) (Homo sapiens, UniProt P42336, H1047R); assay: Tumor-associated kinase inhibition test; format: biochemical; conditions: read-out: Inhibitory rate (%)
T4 construct: purchased Eurofins Pharma Discovery Services UK Limited (contract assay)
From the text: as §3

PKCε(h) = target: T5, PKCε(h) (Homo sapiens, UniProt Q02156); assay: Tumor-associated kinase inhibition test; format: biochemical; conditions: read-out: Inhibitory rate (%)
T5 construct: purchased Eurofins Pharma Discovery Services UK Limited
From the text: as §3

CSK(h) = target: T6, CSK(h) (Homo sapiens, UniProt P41240); assay: Tumor-associated kinase inhibition test; format: biochemical; conditions: read-out: Inhibitory rate (%)
T6 construct: purchased Eurofins Pharma Discovery Services UK Limited (contract testing)
From the text: as §3

IRAK1(h) = target: T7, IRAK1(h) (Homo sapiens, UniProt P51617); assay: Tumor-associated kinase inhibition test; format: biochemical; conditions: read-out: Inhibitory rate (%)
T7 construct: purchased Eurofins Pharma Discovery Services UK Limited (contract testing)
From the text: as §3

Bmx(h) = target: T8, Bmx(h) (Homo sapiens, UniProt P51813); assay: Tumor-associated kinase inhibition test; format: biochemical; conditions: read-out: Inhibitory rate (%)
T8 construct: purchased Eurofins Pharma Discovery Services UK Limited (contract assay service)
From the text: as §3

Ros(h) = target: T9, Ros(h) (Homo sapiens, UniProt P08922); assay: Tumor-associated kinase inhibition test; format: biochemical; conditions: read-out: Inhibitory rate (%)
T9 construct: purchased Eurofins Pharma Discovery Services UK Limited
From the text: as §3

PI3Kinase(p110δ/p85α)(h) = target: T10, PI3Kinase(p110δ/p85α)(h) (Homo sapiens, UniProt O00329); assay: Tumor-associated kinase inhibition test; format: biochemical; conditions: read-out: Inhibitory rate (%)
T10 construct: purchased Eurofins Pharma Discovery Services UK Limited (contract assay)
From the text: as §3

EphB4(h) = target: T11, EphB4(h) (Homo sapiens, UniProt P54760); assay: Tumor-associated kinase inhibition test; format: biochemical; conditions: read-out: Inhibitory rate (%)
T11 construct: purchased Eurofins Pharma Discovery Services UK Limited (contract testing)
From the text: as §3

CaMKIIβ(h) = target: T12, CaMKIIβ(h) (Homo sapiens, UniProt Q13554); assay: Tumor-associated kinase inhibition test; format: biochemical; conditions: read-out: Inhibitory rate (%)
T12 construct: purchased Eurofins Pharma Discovery Services UK Limited (contract assay service)
From the text: as §3

PAR-1Bα(h) = target: T13, PAR-1Bα(h) (Homo sapiens, UniProt Q7KZI7); assay: Tumor-associated kinase inhibition test; format: biochemical; conditions: read-out: Inhibitory rate (%)
T13 construct: purchased Eurofins Pharma Discovery Services UK Limited
From the text: as §3

CK1δ(h) = target: T14, CK1δ(h) (Homo sapiens, UniProt P48730); assay: Tumor-associated kinase inhibition test; format: biochemical; conditions: read-out: Inhibitory rate (%)
T14 construct: purchased Eurofins Pharma Discovery Services UK Limited (contract testing)
From the text: as §3

ROCK-I(h) = target: T15, ROCK-I(h) (Homo sapiens, UniProt Q13464); assay: Tumor-associated kinase inhibition test; format: biochemical; conditions: read-out: Inhibitory rate (%)
T15 construct: purchased Eurofins Pharma Discovery Services UK Limited
From the text: as §3

MEK1(h) = target: T16, MEK1(h) (Homo sapiens, UniProt Q02750); assay: Tumor-associated kinase inhibition test; format: biochemical; conditions: read-out: Inhibitory rate (%)
T16 construct: purchased Eurofins Pharma Discovery Services UK Limited
From the text: as §3

Rsk2(h) = target: T17, Rsk2(h) (Homo sapiens, UniProt P51812); assay: Tumor-associated kinase inhibition test; format: biochemical; conditions: read-out: Inhibitory rate (%)
T17 construct: purchased Eurofins Pharma Discovery Services UK Limited
From the text: as §3

Hela cell = assay: Sulforhodamine B proliferation; format: cell-based; conditions: Homo sapiens, SRB method of Example 2, FIG. 3, read-out: Half inhibitory concentration to Hela cell proliferation
Description: as §1, §2

T9 sequence (P08922 28-2347): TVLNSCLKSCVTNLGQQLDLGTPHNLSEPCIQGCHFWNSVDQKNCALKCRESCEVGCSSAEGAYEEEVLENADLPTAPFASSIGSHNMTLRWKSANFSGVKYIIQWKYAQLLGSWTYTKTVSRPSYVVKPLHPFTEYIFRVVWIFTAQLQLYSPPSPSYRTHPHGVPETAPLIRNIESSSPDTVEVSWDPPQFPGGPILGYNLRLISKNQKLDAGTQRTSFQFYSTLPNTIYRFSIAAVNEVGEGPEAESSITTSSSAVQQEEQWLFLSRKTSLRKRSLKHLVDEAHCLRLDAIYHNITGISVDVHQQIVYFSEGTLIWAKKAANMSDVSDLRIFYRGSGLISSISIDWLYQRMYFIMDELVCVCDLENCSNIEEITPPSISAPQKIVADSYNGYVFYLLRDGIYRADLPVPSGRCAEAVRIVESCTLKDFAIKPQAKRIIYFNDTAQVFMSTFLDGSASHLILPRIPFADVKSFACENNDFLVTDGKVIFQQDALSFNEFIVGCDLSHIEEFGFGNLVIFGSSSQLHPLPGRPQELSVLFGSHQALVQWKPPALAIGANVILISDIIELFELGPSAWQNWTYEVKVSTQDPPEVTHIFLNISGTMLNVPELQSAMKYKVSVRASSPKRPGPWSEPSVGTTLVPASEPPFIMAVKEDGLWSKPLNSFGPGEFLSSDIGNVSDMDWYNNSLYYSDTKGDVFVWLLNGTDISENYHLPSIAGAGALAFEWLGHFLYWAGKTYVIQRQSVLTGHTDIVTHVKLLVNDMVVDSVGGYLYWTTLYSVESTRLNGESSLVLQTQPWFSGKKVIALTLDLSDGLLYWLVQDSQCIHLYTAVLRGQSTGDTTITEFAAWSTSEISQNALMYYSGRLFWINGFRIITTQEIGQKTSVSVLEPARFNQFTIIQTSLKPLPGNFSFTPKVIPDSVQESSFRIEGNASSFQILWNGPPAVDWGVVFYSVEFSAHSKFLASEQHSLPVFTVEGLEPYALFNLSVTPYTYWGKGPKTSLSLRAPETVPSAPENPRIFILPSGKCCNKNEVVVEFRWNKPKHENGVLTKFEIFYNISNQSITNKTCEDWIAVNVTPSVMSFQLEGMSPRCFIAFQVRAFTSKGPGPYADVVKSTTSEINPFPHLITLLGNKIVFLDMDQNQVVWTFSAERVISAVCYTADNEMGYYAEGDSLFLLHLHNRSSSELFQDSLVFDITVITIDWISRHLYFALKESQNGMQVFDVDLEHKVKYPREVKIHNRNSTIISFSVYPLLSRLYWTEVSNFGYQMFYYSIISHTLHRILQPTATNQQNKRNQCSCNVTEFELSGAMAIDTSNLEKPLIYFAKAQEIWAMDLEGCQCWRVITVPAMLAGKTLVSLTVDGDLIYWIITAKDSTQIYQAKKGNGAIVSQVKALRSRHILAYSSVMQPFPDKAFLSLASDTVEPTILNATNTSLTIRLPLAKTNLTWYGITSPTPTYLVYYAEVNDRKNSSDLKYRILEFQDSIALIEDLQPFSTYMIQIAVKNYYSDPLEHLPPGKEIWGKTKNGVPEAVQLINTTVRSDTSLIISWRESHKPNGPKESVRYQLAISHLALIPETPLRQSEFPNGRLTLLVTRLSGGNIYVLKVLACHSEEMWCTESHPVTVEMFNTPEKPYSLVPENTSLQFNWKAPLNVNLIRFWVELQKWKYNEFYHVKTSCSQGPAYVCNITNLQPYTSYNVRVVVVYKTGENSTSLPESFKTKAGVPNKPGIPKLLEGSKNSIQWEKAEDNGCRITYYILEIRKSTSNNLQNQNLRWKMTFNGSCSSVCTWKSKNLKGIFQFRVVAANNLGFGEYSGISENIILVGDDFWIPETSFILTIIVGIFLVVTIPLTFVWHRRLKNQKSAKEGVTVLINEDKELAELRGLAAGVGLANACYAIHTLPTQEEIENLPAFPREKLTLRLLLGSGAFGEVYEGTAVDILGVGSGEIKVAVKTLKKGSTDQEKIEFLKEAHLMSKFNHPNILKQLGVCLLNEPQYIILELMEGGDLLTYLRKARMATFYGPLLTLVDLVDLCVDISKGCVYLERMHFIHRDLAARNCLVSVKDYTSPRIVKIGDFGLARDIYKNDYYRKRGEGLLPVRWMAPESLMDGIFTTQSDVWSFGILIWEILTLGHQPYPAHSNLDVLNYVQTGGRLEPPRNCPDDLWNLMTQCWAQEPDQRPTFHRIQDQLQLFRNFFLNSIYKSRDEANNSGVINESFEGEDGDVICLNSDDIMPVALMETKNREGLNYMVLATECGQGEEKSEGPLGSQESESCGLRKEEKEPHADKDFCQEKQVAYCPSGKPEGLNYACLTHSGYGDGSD
T16 sequence (Q02750 whole entry): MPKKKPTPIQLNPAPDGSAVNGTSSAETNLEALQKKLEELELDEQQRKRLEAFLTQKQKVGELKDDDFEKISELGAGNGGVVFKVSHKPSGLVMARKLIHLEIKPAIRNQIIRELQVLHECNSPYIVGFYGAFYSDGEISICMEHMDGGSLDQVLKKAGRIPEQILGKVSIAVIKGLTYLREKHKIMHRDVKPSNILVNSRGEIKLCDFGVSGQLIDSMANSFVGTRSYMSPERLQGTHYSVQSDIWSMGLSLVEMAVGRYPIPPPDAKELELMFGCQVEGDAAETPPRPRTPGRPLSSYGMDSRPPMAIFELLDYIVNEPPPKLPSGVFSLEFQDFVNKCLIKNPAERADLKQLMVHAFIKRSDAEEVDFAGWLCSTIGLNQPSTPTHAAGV
T4 sequence (P42336 whole entry H1047R): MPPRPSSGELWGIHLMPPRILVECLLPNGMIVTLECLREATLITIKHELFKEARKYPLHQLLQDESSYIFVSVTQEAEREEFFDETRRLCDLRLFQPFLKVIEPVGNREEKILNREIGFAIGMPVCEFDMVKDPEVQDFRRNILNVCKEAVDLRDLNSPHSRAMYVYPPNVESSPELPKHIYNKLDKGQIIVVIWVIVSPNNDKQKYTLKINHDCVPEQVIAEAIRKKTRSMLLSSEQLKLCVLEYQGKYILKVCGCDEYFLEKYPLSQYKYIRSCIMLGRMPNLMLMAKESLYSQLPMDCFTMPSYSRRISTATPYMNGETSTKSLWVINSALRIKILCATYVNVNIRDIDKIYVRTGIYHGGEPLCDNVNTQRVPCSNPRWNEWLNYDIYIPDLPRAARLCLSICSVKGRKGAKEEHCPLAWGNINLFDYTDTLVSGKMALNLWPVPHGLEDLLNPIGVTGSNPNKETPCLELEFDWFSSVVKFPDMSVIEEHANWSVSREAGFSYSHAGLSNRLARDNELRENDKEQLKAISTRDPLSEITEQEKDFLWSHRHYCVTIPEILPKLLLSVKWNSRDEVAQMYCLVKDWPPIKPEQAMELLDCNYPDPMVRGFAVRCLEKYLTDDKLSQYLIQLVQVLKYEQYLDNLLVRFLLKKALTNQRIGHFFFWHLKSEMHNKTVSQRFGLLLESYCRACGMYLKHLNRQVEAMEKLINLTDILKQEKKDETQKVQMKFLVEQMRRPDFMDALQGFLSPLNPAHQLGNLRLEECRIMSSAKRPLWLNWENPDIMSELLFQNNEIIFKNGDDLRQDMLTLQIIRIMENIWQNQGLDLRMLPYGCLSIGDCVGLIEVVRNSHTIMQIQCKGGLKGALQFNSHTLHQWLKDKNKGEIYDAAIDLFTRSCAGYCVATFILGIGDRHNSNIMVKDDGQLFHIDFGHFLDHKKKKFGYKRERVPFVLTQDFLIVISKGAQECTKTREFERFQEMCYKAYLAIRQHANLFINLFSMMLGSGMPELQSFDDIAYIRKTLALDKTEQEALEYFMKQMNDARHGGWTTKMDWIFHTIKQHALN
T4 sequence (P27986 whole entry partner): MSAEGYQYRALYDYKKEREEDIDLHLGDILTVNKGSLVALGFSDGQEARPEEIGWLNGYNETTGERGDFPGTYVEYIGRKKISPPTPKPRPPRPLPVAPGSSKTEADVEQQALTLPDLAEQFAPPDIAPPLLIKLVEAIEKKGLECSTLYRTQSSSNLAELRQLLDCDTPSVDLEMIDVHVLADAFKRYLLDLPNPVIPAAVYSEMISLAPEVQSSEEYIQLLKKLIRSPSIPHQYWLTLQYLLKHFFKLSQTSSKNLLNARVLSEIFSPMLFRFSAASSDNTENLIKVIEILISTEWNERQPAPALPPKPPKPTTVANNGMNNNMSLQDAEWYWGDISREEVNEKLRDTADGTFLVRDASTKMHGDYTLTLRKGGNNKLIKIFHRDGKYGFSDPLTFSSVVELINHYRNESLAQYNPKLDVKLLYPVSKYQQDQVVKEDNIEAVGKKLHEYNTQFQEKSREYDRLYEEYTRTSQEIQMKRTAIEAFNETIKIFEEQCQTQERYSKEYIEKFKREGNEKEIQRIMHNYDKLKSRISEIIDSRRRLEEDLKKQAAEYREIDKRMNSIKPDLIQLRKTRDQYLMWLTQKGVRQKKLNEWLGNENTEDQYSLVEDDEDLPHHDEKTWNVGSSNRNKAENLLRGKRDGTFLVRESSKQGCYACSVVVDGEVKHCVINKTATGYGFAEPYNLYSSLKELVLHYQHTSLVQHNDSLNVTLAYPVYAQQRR
T14 sequence (P48730 whole entry): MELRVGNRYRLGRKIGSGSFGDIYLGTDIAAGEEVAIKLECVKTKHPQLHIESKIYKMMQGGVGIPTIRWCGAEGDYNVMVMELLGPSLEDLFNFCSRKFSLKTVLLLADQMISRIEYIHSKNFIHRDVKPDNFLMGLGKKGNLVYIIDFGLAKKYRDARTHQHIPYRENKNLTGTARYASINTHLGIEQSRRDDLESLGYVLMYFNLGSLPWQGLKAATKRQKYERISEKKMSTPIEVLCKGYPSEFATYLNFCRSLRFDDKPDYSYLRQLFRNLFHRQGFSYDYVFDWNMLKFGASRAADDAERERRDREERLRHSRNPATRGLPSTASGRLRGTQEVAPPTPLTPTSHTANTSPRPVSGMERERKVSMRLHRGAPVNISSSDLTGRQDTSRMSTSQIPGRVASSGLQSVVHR
T1 sequence (P42336 whole entry E545K): as the sequence (P42336 whole entry H1047R) above, with E545K, R1047H counted along it
T1 sequence (P27986 whole entry partner): as the sequence (P27986 whole entry partner) above

C=C(C)n1c(=O)n(C(C)=O)c2ncc(Br)cc21 [FD162]
Effect on Akt phosphorylation level (p-Akt S473 band) (p-Akt (S473)): significantly reduce the Akt phosphorylation level | Effect on Akt phosphorylation level (p-Akt S473 band) (p-Akt (S473); listed as FD3): comparable effects to MK2206 | Inhibition of proliferation of tumor cell lines [1]: widespread inhibitory effects | inhibition at 10 µM [2]: 4% | inhibition at 10 µM (c-RAF(h)): -3% | inhibition at 10 µM (Rsk1(h)): 9% | inhibition at 10 µM [3]: 3% | inhibition at 10 µM (PKCε(h)): -1% | inhibition at 10 µM (CSK(h)): -12% | inhibition at 10 µM (IRAK1(h)): 9% | inhibition at 10 µM (Bmx(h)): -7% | inhibition at 10 µM (Ros(h)): -13% | inhibition at 10 µM (PI3Kinase(p110δ/p85α)(h)): 3% | inhibition at 10 µM (EphB4(h)): -8% | inhibition at 10 µM (CaMKIIβ(h)): 2% | inhibition at 10 µM (PAR-1Bα(h)): 6% | inhibition at 10 µM (CK1δ(h)): 7% | inhibition at 10 µM (ROCK-I(h)): -4% | inhibition at 10 µM (MEK1(h)): -2% | inhibition at 10 µM (Rsk2(h)): 4% | IC50 (Hela cell): 3.67 µM
